Source: patent US9844556B2, “Preventive/therapeutic method and preventive/therapeutic agent for complications after cataract surgery” (KOWA COMPANY, LTD., priority 2015, dated 2017)

How the values were obtained:
[1] = test system: Human lens epithelial cells (HLEpiC); assay: Inhibitory action on actin stress fiber formation (phalloidin staining, confocal microscopy); format: cell-based; conditions: treated about an hour
Description: Human lens epithelial cells (HLEpiC (ScienCell Research Laboratories)) were diluted with a medium (Epithelial Cell Medium (ScienCell Research Laboratories)), dispensed to each well of Poly-L-lysine (ScienCell Research Laboratories) coated Imaging Chamber CG at 100 μL/well (about 5000 cells/cm^2), and cultured in a carbon dioxide incubator (37° C., 5% CO2) until about 50% confluent. The medium was removed with vacuum suction and a test substance, a positive control, a comparative control, or the medium (control) at each concentration given below was added to each well at 300 μL/well:
Test substance: Ripasudil with a concentration of 10 μM, 100 μM or 1 mM,
Positive control: Cytochalasin D with a concentration of 2 μM,
These were treated in a carbon dioxide incubator (37° C., 5% CO2) for about an hour, and then washed once with the medium. 4% Paraformaldehyde Phosphate Buffer Solution (Wako Pure Chemical Industries, Ltd.) (hereinafter, referred to as a fixative solution) was added at 300 μL/well, and fixation was carried out at room temperature for 2 minutes. After washing with the medium, 0.5% Triton X-100 (Roche Diagnostics K.K.) was added at 300 μL/well, and penetrated at room temperature for 2 minutes. After washing with the medium, the fixative solution was added at 300 μL/well, and fixation was carried out at room temperature for 20 minutes.
Separately, 25 μL of 14 μM Actin-Stain™ 555 phalloidin (Cytoskeleton, Inc.) (hereinafter, referred to as Phalloidin) was added to 3475 μL of 10 mM phosphate buffered saline (Wako Pure Chemical Industries, Ltd.) to produce 100 nM Phalloidin.
This 100 nM Phalloidin was added to each well washed with the medium at 200 μL/well, and staining was carried out at room temperature in a dark place for about 60 minutes.
After washing with the medium, the chamber was removed, and […] Mounting Medium with DAPI (Vector Laboratories, Inc.) was dropped onto a cover glass with a few drops. A slide glass was placed thereon and this was left to stand at room temperature in a dark place for 30 minutes or more, and adhesion and nuclear staining were carried out and then observed by a confocal laser scanning microscope.

[2] = test system: Human lens epithelial cells (HLEpiC); assay: Reversibility of inhibition of actin stress fiber formation after removal; format: cell-based; conditions: recultured about 24 hours after removal
Description: After removal of the test substance, positive control or comparative control in Example 1, the cells were recultured for about another 24 hours, treated in accordance with the operation in Example 1, and then observed by a confocal laser scanning microscope in the same manner as in Example 1 to observe the reversibility of actin stress fibers.

[3] = test system: HLEpiC; assay: Determination of G-actin/F-actin ratio using G-Actin/F-Actin In Vivo Assay Kit; format: cell-based, human; conditions: about an hour, control 1.16
Description: HLEpiC was diluted with a medium (Epithelial Cell Medium), and dispensed to a Poly-L-lysine coated T-75 flask at about 5000 cells/cm^2, and cultured in a carbon dioxide incubator (37° C., 5% CO2) until about 50% confluent. A test substance, a positive control or the medium (control) at each concentration given below was added to each flask at 20 mL.
Test substance: Ripasudil with a concentration of […], 100 μM or 1 mM,
Positive control: CD with a concentration of 2 μM, and
These were treated in a carbon dioxide incubator (37° C., 5% CO2) for about an hour.
To 20 mL of Lysis and F-actin stabilization buffer was added 200 μL of 100 mM ATP stock solution and 200 μL of 100× Protease inhibitor cocktail stock to produce LAS2 buffer, and this was incubated in a carbon dioxide incubator (37° C.) for about 30 minutes. Warmed LAS2 buffer was added at 2.5 mL to each flask in which the medium was removed with vacuum suction.
Next, adherent HLEpiC was completely scraped with a cell scraper and transferred with the LAS2 buffer to a conical tube, and HLEpiC was crushed with a micropipette (hereinafter, referred to as cell solution). This cell solution was incubated in a carbon dioxide incubator (37° C.) for about 10 minutes and then centrifuged for 10 minutes (2000 rpm, room temperature). The supernatant was dispensed into an ultracentrifugal tube at 1.8 mL and centrifuged for an hour with an ultracentrifuge (100,000× g, 37° C.). At this time, F-actin is precipitated and G-actin remains in the supernatant.
The supernatant was transferred to a conical tube while being careful not to suck F-actin precipitates.
To precipitates of each sample was added 1.8 mL of F-actin depolymerizing buffer, and this was incubated under ice-cold conditions for an hour to depolymerize actin.
From each supernatant sample and precipitate sample, 100 μL each was put in a 1.5 mL Eppendorf tube, and 25 μL of 5×SDS sample buffer was added and stirred.
Each sample was boiled in a boiling water bath for 5 minutes.
Each sample was subjected to SDS-polyacrylamide gel electrophoresis, followed by Western blotting.
Next, after treatment using a Western blotting detection reagent (ECL Select Western Blotting Detection Reagent, GE Healthcare Japan), proteins were detected using a Lumino image analyzer. The quantities of G-actin and F-actin were determined using an analysis software (ImageQuant TL, GE Healthcare Japan) and the G-actin/F-actin ratio was calculated.
The variation in the quantity of F-actin required to form actin stress fibers was evaluated by comparison with the G-actin/F-actin ratio of untreated (Control) cells.

[4] = test system: Normal human fibroblasts; assay: Cytostatic action, BrdU uptake (Cell Proliferation ELISA); format: cell-based; conditions: dermal fibroblast proliferation, 2 days
Description: Normal human fibroblasts (Sanko Junyaku Co., Ltd.) were seeded at 2000 cells/well and cultured overnight. Next day, the medium (FGM-2 (Sanko Junyaku Co., Ltd.)) was exchanged (150 μL), and 10 μL of Ripasudil was then added so that the final concentration was 0.1 μM, 1 μM and 10 μM. After culturing for 2 days, 10 μL of BrdU (58.8-fold diluted solution: an undiluted solution is a 1000-fold solution) was added, and the cells were cultured for 2 hours. OD540-620 was measured using a plate reader after fixation and antibody addition, washing and coloring, and reaction termination in accordance with the protocol of Cell Proliferation ELISA BrdU kit (Roche), and an action on proliferation was evaluated. A value in a sample in which Ripasudil is not added is considered as 100%, and the uptake rate of BrdU under each condition is shown in Table 2.

## C[C@H]1CNCCCN1S(=O)(=O)c1cccc2cncc(F)c12 [Ripasudil, 4-fluoro-5-{[(2S)-2-methyl-1,4-diazepan-1-yl]sulfonyl}isoquinoline]
[1]; 10 μM
  actin stress fibers (observation): slightly disappear
[1]; 100 μM
  actin stress fibers (observation): significantly disappear
[1]; 1 mM
  actin stress fibers (observation): significantly disappear
[2]; 100 μM
  reversibility of actin stress fibers: recovered
[2]; 1 mM
  reversibility of actin stress fibers: recovered
[3]; 10 μM
  G-actin/F-actin ratio: 1.91
[3]; 100 μM
  G-actin/F-actin ratio: 4.55
[3]; 1 mM
  G-actin/F-actin ratio: 24.87
[4]; Ripasudil 0.1 μM
  Uptake rate of BrdU (% of control): 80.0 % of control
[4]; Ripasudil 1.0 μM
  Uptake rate of BrdU (% of control): 59.3 % of control
[4]; Ripasudil 10.0 μM
  Uptake rate of BrdU (% of control): 10.9 % of control
